From patent EP2727627B1, “Oral and dental care and cleaning agents with Tocopherol acetate” (priority 2012, dated 2014)

Assays:
[1] = test system: Gingiva Fibroblasten; assay: WST-1 vitality test (metabolic activity); type: cell-based; details: for Vitalität [%] Mittelwert: 24 h incubation, untreated control = 100 %, mean of 6
Source text: Als Maß für die Vitalität kann die metabolische Aktivität von Gingiva Fibroblasten nach Inkubation mit Tocopherylacetat gemessen werden. Das chromogene Tetrazoliumsalz WST-1 wird durch stoffwechselaktive Succinatdehydrogenasen lebender Zellen reduktiv aufgespalten, wobei ein wasserlösliches Formazansalz entsteht. Durch UV/VIS-spektroskopische Vermessung der Absorptionsintensität kann die Konzentration der intermediär gebildeten Formazansalze bestimmt werden, welche in Korrelation zur Aktivität der Succinatdehydrogenase steht.
(§1) Der WST-Vitalitätstest wurde in einer 96-Well Mikrotiterplatte in 6-fach Bestimmung durchgeführt. Dafür wurde pro Well eine definierte Zellzahl von Gingiva Fibroplasten in einem Volumen von 50 µl (microliter) ausgesät. Anschließend wurde Tocopherylacetat in absteigenden Konzentrationen dazugegeben. Nach 24 Stunden Inkubation wurden 10 µl des in Medium verdünnten Tetrazolium-Salzes WST-1 zu jedem Ansatz pipettiert. Es folgte eine dreistündige Inkubation bei 37°C und 5 % Kohlenstoffdioxid, bevor die Absorption bei einer Wellenlänge von 450 nm (Referenzwellenlänge 650 nm) in einem Spektrometer (ELISA-Reader) gemessen wurde. Die Werte der unbehandelten Kontrolle wurden gleich 100 % gesetzt und die Werte der behandelten Proben darauf bezogen.
Für jede Tocopherylacetat-Konzentration wurde eine 6-fach Bestimmung durchgeführt, aus den 6 Messwerten wurde jeweils der Mittelwert gebildet.
as §1, with “37 °C” for “37°C”

[2] = test system: Gingiva Fibroblasten; assay: ATP determination with ATPLite-M assay (cell energy content); type: cell-based
Source text: ATP (Adenosintriphosphat) ist die universelle Speicherform für chemische Energie in Zellen. Die ATP-Bestimmung erfolgt mit Hilfe des ATPLiteTM-M Assays (Packard). Das Testprinzip dieses Assays beruht darauf, dass die Luciferase von Photinus pyralis eine Reaktion katalysiert, bei der in Gegenwart von ATP D-Luciferin in Oxyluciferin umgewandelt wird. Bei dieser Reaktion wird grünes Licht emittiert, das mit einem Luminometer gemessen werden kann. Das emittierte Biolumineszenzlicht ist proportional zur Menge des vorhandenen ATP. Zur Bestimmung der ATP-Aktivität in Gingiva Fibroblasten werden diese in geeigneter Weise unter Erhalt ihrer spezifischen Eigenschaften vorkultiviert (DE10162814) und in eine 96well-Zellkulturschale überführt. Die Behandlung mit dem Substanzgemisch erfolgte über 24 Stunden gegen eine unbehandelte Kontrolle. Anschließend wurden die Zellen mit jeweils 50 µl/Kavität eines im Testkit enthaltenen Lysepuffer für 5 min auf einem Schüttler lysiert. Danach wurden die Zellen für weitere 5 min mit jeweils 50 µl/Kavität mit der mitgelieferten Substratlösung auf dem Schüttler inkubiert und anschließend das Reaktionsgemisch in eine schwarze Mikrotiterplatte überführt. Nach einer Inkubationszeit von 10 min in der Dunkelheit erfolgte die Messung. Tabelle 2: Einfluss von Tocopherylacetat auf den Zellenergieinhalt

[3] = Fibroblast, 24 h, read-out: Vitalität [%] Mittelwert
[4] = low concentrations, Gingiva-Zellen, result in words

SMILES: CC(=O)Oc1c(C)c(C)c2c(c1C)CCC(C)(CCCC(C)CCCC(C)CCCC(C)C)O2 (stereo not shown) [Tocopherylacetat]
- viability at 0.0005 % [1, 3]: 133%
- viability at 0.001 % [1, 3]: 141%
- viability at 0.005 % [1, 3]: 138%
- viability at 0.01 % [1, 3]: 150%
- Vitalität [%] Mittelwert ([1]; Konz. 0,01 Gew.-%): 150,5%
- Vitalität [%] Mittelwert ([1]; Konz. 0,0005 Gew.-%): 132,9%
- Vitalität [%] Mittelwert ([1]; Konz. 0,001 Gew.-%): 141,4%
- Vitalität [%] Mittelwert ([1]; Konz. 0,005 Gew.-%): 137,7%
- Vitalität [1, 4]: signifikanten Steigerung der Vitalität
- activity at 0.01 % ([2]; Fibroblast, Konz. 0,01 Gew.-%, 24 h treatment, versus untreated control (100,0), read-out: ATP-Gehalt [%] Mittelwert): 128%
- activity at 0.0025 % ([2]; Fibroblast, Konz. 0,0025 Gew.-%, 24 h treatment, versus untreated control (100,0), read-out: ATP-Gehalt [%] Mittelwert): 125%
- activity at 0.005 % ([2]; Fibroblast, Konz. 0,005 Gew.-%, 24 h treatment, versus untreated control (100,0), read-out: ATP-Gehalt [%] Mittelwert): 139%
- ATP-Gehalt [2, 4]: signifikanten Steigerung des ATP-Gehaltes
